Among the data in patent publication US12544359B2, “1-aminosulfonyl-2-carboxypyrrole derivatives as metallo-beta-lactamase inhibitors” (INFEX Therapeutics Limited, priority 2019, dated 2026) are CC50 and IC50 values, retold here.

Data set [1] in a line: Cytotoxicity Assay (CellTiter-Glo). The following applies: human, Hep G2 cells (ATCC HB-8065); 24 h exposure; read-out: HepG2 CC50. The format is cell-based. The procedure: Cytotoxicity was evaluated in human Hep G2 cells (ATCC HB-8065) seeded at a density of 2×10^5 cells per well and incubated for 24 h at 37° C., 5% CO2. Cells were exposed to a doubling dilution series of test article. After 24 h exposure, the viability of the cells was determined using CellTiter-Glo® (Promega, WI, USA) according to the manufacturer's instructions. Results are reported as the concentration of test article required to reduce cell viability by 50% (CC50).

Data set [2] deals with NDM-1 (Klebsiella pneumoniae, UniProt C7C422). Description: metallo-β-lactamase inhibition assay (nitrocefin). The format is biochemical. Conditions: 1.5 nM NDM-1, 100 μM nitrocefin, 37° C., pH 7.5. The procedure:
Compounds of the invention were tested in a metallo-β-lactamase inhibition assay to investigate mechanism of action of the compounds. Results are reported as the concentration of test article required to inhibit enzyme activity by 50% (IC50).
Inhibition of metallo-β-lactamase enzyme function was performed at 37° C. in buffer at pH 7.5 (50 mM HEPES, 150 mM NaCl, 0.1 mM ZnSO4, 20 μg/mL PEG4000), containing 1.5 nM NDM-1, 100 μM nitrocefin, and a range of concentrations of compound. Absorbance at 490 nm was measured using a BMG LABTECH FLUOstar Omega microplate reader every minute for 30 minutes. IC50s were determined from the average increase in OD per minute versus the Log 10 concentration of compound using GraphPad Prism.

SMILES strings stand for the structures. Counter-ions that a name gives are not always drawn. A value given as a limit tells only on which side of the number the result lay.

Sequence of NDM-1 (C7C422 whole entry, looked up, species assumed): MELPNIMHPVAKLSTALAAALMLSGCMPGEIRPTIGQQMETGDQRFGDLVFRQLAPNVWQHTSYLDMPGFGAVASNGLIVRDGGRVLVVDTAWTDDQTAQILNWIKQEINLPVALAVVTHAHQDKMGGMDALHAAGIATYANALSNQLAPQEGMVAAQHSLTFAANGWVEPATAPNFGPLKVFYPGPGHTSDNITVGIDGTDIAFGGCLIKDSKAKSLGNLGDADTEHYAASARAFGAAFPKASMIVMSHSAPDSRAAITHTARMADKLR

On to `CNC(=O)c1cccc(-c2ccn(S(N)(=O)=O)c2C(=O)O)c1` [Example 1, 3-[3-(Methylcarbamoyl)phenyl]-1-sulfamoyl-pyrrole-2-carboxylic acid], for which the CC50 at 24 h in data set [1] was above 256 µg/mL. In data set [2], this compound yielded an IC50 of 223 nM.

For the compound `CN(C)C(=O)c1ccc(-c2ccn(S(N)(=O)=O)c2C(=O)O)cc1` [Example 2, 3-[4-(Dimethylcarbamoyl)phenyl]-1-sulfamoyl-pyrrole-2-carboxylic acid], in data set [1], the CC50 at 24 h is above 256 µg/mL. In data set [2], the IC50 is 111 nM.

Turning to `NS(=O)(=O)n1ccc(-c2ccc(C(=O)NC3CC3)cc2)c1C(=O)O` [Example 3, 3-[4-(Cyclopropyl-carbamoyl)phenyl]-1-sulfamoyl-pyrrole-2-carboxylic acid], in data set [1], the CC50 at 24 h is above 256 µg/mL. `N#CCNC(=O)c1ccc(-c2ccn(S(N)(=O)=O)c2C(=O)O)cc1` [Example 6, 3-[4-(Cyanomethyl-carbamoyl)phenyl]-1-sulfamoyl-pyrrole-2-carboxylic acid]: in data set [1], the CC50 at 24 h was above 256 µg/mL. Also, in data set [2], it took 843 nM to reach half-maximal inhibition (IC50). For `NS(=O)(=O)n1ccc(-c2ccc(C(=O)NCC(=O)O)cc2)c1C(=O)O` [Example 7, 3-[4-(Carboxymethyl-carbamoyl)phenyl]-1-sulfamoyl-pyrrole-2-carboxylic acid], the 50% cytotoxic concentration (CC50) at 24 h in data set [1] was above 256 µg/mL. For the same compound, the IC50 in data set [2] came out at 650 nM. As for `NC(=O)CNC(=O)c1ccc(-c2ccn(S(N)(=O)=O)c2C(=O)O)cc1` [Example 8, 3-[4-[(2-Amino-2-oxo-ethyl)carbamoyl]phenyl]-1-sulfamoyl-pyrrole-2-carboxylic acid], the CC50 at 24 h in data set [1] is above 128 µg/mL. The IC50 in data set [2] is 405 nM. On to `CN(C)CCNC(=O)c1ccc(-c2ccn(S(N)(=O)=O)c2C(=O)O)cc1` [Example 9, 3-[4-[2-(Dimethylamino)ethylcarbamoyl]phenyl]-1-sulfamoyl-pyrrole-2-carboxylic acid], for which the CC50 at 24 h in data set [1] is above 256 µg/mL. In data set [2], this compound displayed an IC50 of 373 nM. For the compound `CC(=O)NCCNC(=O)c1ccc(-c2ccn(S(N)(=O)=O)c2C(=O)O)cc1` [Example 10, 3-[4-(2-Acetamidoethyl-carbamoyl)phenyl]-1-sulfamoyl-pyrrole-2-carboxylic acid], in data set [1], the CC50 at 24 h is above 256 µg/mL. In data set [2], this compound yielded an IC50 of 374 nM. As for `NS(=O)(=O)n1ccc(-c2ccc(C(=O)NCCCO)cc2)c1C(=O)O` [Example 11, 3-[4-(3-Hydroxypropyl-carbamoyl)phenyl]-1-sulfamoyl-pyrrole-2-carboxylic acid], the CC50 at 24 h in data set [1] was above 256 µg/mL. The compound further showed an IC50 in data set [2] of 527 nM.

As for `NS(=O)(=O)n1ccc(-c2ccc(C(=O)NC(CO)CO)cc2)c1C(=O)O` [Example 12, 3-[4-[[2-Hydroxy-1-(hydroxymethyl)ethyl]carbamoyl]phenyl]-1-sulfamoyl-pyrrole-2-carboxylic acid], the CC50 at 24 h in data set [1] was above 128 µg/mL. The IC50 in data set [2] was found to be 1060 nM.

`NS(=O)(=O)n1ccc(-c2ccc(C(=O)NC[C@@H](O)CO)cc2)c1C(=O)O` [Example 13, 3-[4-[[(2R)-2,3-Dihydroxypropyl]carbamoyl]phenyl]-1-sulfamoyl-pyrrole-2-carboxylic acid]: the CC50 at 24 h in data set [1] is above 256 µg/mL. The IC50 in data set [2] came to 566 nM. With `NS(=O)(=O)n1ccc(-c2ccc(C(=O)NCCN3CCOCC3)cc2)c1C(=O)O` [Example 15, 3-[4-(2-Morpholinoethyl-carbamoyl)phenyl]-1-sulfamoyl-pyrrole-2-carboxylic acid], the cytotoxic concentration (CC50) at 24 h in data set [1] is above 256 µg/mL. For the same compound, in data set [2], the IC50 was determined as 1790 nM.

Turning to `NS(=O)(=O)n1ccc(-c2ccc(C(=O)NCCN3CCCC3=O)cc2)c1C(=O)O` [Example 16, 3-[4-[2-(2-Oxopyrrolidin-1-yl)ethylcarbamoyl]phenyl]-1-sulfamoyl-pyrrole-2-carboxylic acid], the CC50 at 24 h in data set [1] is above 256 µg/mL. Moreover, in data set [2], the IC50 was 623 nM. Take `NS(=O)(=O)n1ccc(-c2ccc(C(=O)NCCN3CCNC3=O)cc2)c1C(=O)O` [Example 17, 3-[4-[2-(2-Oxoimidazolidin-1-yl)ethylcarbamoyl]phenyl]-1-sulfamoyl-pyrrole-2-carboxylic acid, ammonium salt]: in data set [1], the cytotoxic concentration (CC50) at 24 h was above 256 µg/mL. Half-maximal inhibition in data set [2] (IC50) was put at 394 nM.

Regarding `NC1CN(C(=O)c2ccc(-c3ccn(S(N)(=O)=O)c3C(=O)O)cc2)C1` [Example 21, 3-[4-(3-Aminoazetidine-1-carbonyl)phenyl]-1-sulfamoyl-pyrrole-2-carboxylic acid], in data set [1], the CC50 at 24 h is above 256 µg/mL. In data set [2], the IC50 worked out at 78 nM. In the case of `NCCNC(=O)c1ccc(-c2ccn(S(N)(=O)=O)c2C(=O)O)cc1` [Example 26, 3-[4-(2-Aminoethyl-carbamoyl)phenyl]-1-sulfamoyl-pyrrole-2-carboxylic acid], the CC50 at 24 h in data set [1] was above 256 µg/mL. This compound also returned an IC50 in data set [2] of 420 nM. Regarding `NS(=O)(=O)n1ccc(-c2ccc(C(=O)N3CCNCC3)cc2)c1C(=O)O` [Example 27, 3-[4-(Piperazine-1-carbonyl)phenyl]-1-sulfamoyl-pyrrole-2-carboxylic acid], in data set [1], the CC50 at 24 h is above 256 µg/mL. The midpoint of inhibition in data set [2], the IC50, lay at 131 nM. Turning to `NC1CN(C(=O)c2cccc(-c3ccn(S(N)(=O)=O)c3C(=O)O)c2)C1` [Example 31, 3-[3-(3-Aminoazetidine-1-carbonyl)phenyl]-1-sulfamoyl-pyrrole-2-carboxylic acid], the CC50 at 24 h in data set [1] is above 256 µg/mL. In data set [2], this compound gave an IC50 of 3330 nM. Take `CCNCCNC(=O)c1ccc(-c2ccn(S(N)(=O)=O)c2C(=O)O)cc1` [Example 32, 3-[4-[2-(Ethylamino)ethylcarbamoyl]phenyl]-1-sulfamoyl-pyrrole-2-carboxylic acid]: in data set [1], the CC50 at 24 h is above 256 µg/mL. Further, in data set [2], half-maximal inhibition (IC50) was put at 1060 nM. For `NS(=O)(=O)n1ccc(-c2ccc(C(=O)NC3CNC3)cc2)c1C(=O)O` [Example 35, 3-[4-(Azetidin-3-ylcarbamoyl)phenyl]-1-sulfamoyl-pyrrole-2-carboxylic acid], the 50% cytotoxic concentration (CC50) at 24 h in data set [1] was above 256 µg/mL. Further, the 50% inhibitory concentration (IC50) in data set [2] was 200 nM. Turning to `NS(=O)(=O)n1ccc(-c2ccc(C(=O)NC3CCNCC3)cc2)c1C(=O)O` [Example 36, 3-[4-(4-Piperidylcarbamoyl)phenyl]-1-sulfamoyl-pyrrole-2-carboxylic acid hydrochloride], in data set [1], the CC50 at 24 h was above 256 µg/mL. For the same compound, in data set [2], the half-inhibitory concentration (IC50) is 410 nM. Turning to `NS(=O)(=O)n1ccc(-c2ccc(C(=O)NCCCOS(=O)(=O)O)cc2)c1C(=O)O` [Example 54, 1-Sulfamoyl-3-[4-(3-sulfooxypropylcarbamoyl)phenyl]pyrrole-2-carboxylic acid], in data set [1], the CC50 at 24 h was above 256 µg/mL. On the same count and under the same terms, the result for `NS(=O)(=O)n1ccc(CC2CCNCC2)c1C(=O)O` [Example 57, 3-(4-Piperidylmethyl)-1-sulfamoyl-pyrrole-2-carboxylic acid hydrochloride] reads above 256 µg/mL. `CC(=O)N1CCCC(c2ccn(S(N)(=O)=O)c2C(=O)O)C1` (stereo not shown) [Example 58, 3-[1-Acetyl-3-piperidyl]-1-sulfamoyl-pyrrole-2-carboxylic acid] came in with an IC50 in data set [2] of 433 nM. For `CC(=O)N1CCC(Cc2ccn(S(N)(=O)=O)c2C(=O)O)CC1` [Example 62, 3-[(1-Acetyl-4-piperidyl)methyl]-1-sulfamoyl-pyrrole-2-carboxylic acid], the CC50 at 24 h in data set [1] was above 256 µg/mL.

As for `N=C(N)NCC(=O)N1CCC(c2ccn(S(N)(=O)=O)c2C(=O)O)CC1` [Example 83, 3-[1-(2-Guanidinoacetyl)-4-piperidyl]-1-sulfamoyl-pyrrole-2-carboxylic acid], the CC50 at 24 h in data set [1] is above 256 µg/mL.

The term CC50 denotes the concentration at which the toxic effect on the cells reaches its halfway point. A word on the IC50: it is the concentration that inhibits the measured activity by half.
